Reference: patent US20250154180A1, “CRK-LIKE (CRKL) ADAPTOR PROTEIN INHIBITORS AND METHODS OF MAKING AND USING THE SAME” (Rutgers, The State University of New Jersey, priority 2022, published 2025)
Where two headings read alike, the source gives them in different places.

What was measured:
MDA-MB-231 cells = experiment: XTT cell viability, MDA-MB-231; format: cell-based; conditions: 24 and 48 hours
Method: (§1) FIGS. 8A-8C show results using MDA-MB-231 cells (FIG. 8A) or BXPC3 cells (FIG. 8B), wherein the cells were treated with 5 μM of NC5, Compound III (referred to as “NC5-140-1” in FIGS. 8A-8C), and Compound I (referred to as “NC5-140-2” in FIGS. 8A-8C) for 24-48 hours, wherein the XTT assay was used to determine cell viability. The symbol indicates the significance of NC5 vs. Compounds I and/or III; *p<0.05. Data represent mean±SEM.
(§2) Compound embodiments, compound III and compound I, were also made and evaluated. TNBC cells and PDAC cells were treated with a serial dose of original NC5 and modified NC5 derivatives for 24 and 48 hours. The cell viability will be measured by XTT assay. […] Compound III is referred to as “NC5-140-1” and Compound I is referred to as “NC5-140-2” in FIGS. 8A-8C.

AML cell line (MoLM-13) = experiment: CCK-8 cell viability, MoLM-13; format: cell-based, human; conditions: 1 uM, 5 uM, 10 uM; 48 hours
Method: In this example, activities of NC5, Compound III, and the known chemotherapeutic, Cytarabine, were evaluated in the AML cell line (MoLM-13). MoLM-13 cells were collected and seeded at 5,000 cells/well in 96-well plates. The cells were incubated for 24 hours before the addition of either DMSO control or drug at various concentrations. After an additional 48 hours of incubation, 3 μL of CCK-8 was added to every well and incubated at 37° C. for 3 hours. Absorbance was measured at 460 nm in a plate reader. […] The related absorbance was normalized and plotted as line graphs. p-values were determined through two tails student t-tests (*=p<0.5, **=p<0.01, ***=p<0.001).

[1] = system: PBNK cells killing activity towards MDA-MB-231; experiment: Cr51 release assay, PBNK killing of MDA-MB-231; format: cell-based; conditions: 1 uM overnight
Method: (§3) PBNK cells were incubated with 1 uM NC5 or Compound III overnight, then cells were harvested for Cr51 release assay to check cell cytotoxicity. […] The star symbol indicates the significance of vehicle control vs. NC5 of the indicated E:T ratios. *p<0.05, **p<0.01, n=3.

BXPC3 cells = experiment: XTT cell viability, BXPC3; format: cell-based; conditions: 24 and 48 hours
Method: as §1, §2

[2] = system: PBNK cells killing activity towards SK-Hep1; experiment: Cr51 release assay, PBNK killing of SK-Hep1; format: cell-based; conditions: 1 uM overnight
Method: as §3

Huh7 cell line = experiment: CCK-8 cell viability, Huh7; format: cell-based; conditions: 1 uM, 5 uM, 10 uM; 48 hours
Method: (§4) In this example, activities of NC5, Compound III, and the known chemotherapeutic, Sorafenib, were evaluated in HepG2, SKHep1, Huh7, and MDA468 cell lines. Cells from each cell line were collected and seeded at 5,000 cells/well in 96-well plates. The cells were incubated for 24 hours before the addition of either DMSO control or drug at various concentrations. After an additional 48 hours of incubation, 3 μL of CCK-8 was added to every well and incubated at 37° C. for 3 hours. Absorbance was measured at 460 nm in a plate reader. Cells from each cell line were treated with NC5 and Compound III at various concentrations (1 uM, 5 uM, 10 uM). The related absorbance was normalized and plotted as line graphs. p-values were determined through two tails student t-tests (*=p<0.5, **=p<0.01, ***=p<0.001).

HepG2 cell line = experiment: CCK-8 cell viability, HepG2; format: cell-based; conditions: 1 uM, 5 uM, 10 uM; 48 hours
Method: as §4

MDA468 cell line = experiment: CCK-8 cell viability, MDA468; format: cell-based; conditions: 1 uM, 5 uM, 10 uM; 48 hours
Method: as §4

[3] = system: pCrkL (T207) in Sk-Hep1 cells; experiment: Flow cytometry of H2O2-induced pCrkL, Sk-Hep1; format: cell-based; conditions: 50 uM H2O2 1 hour, then 10 uM compound 24 hours
Method: In this example, Sk-Hep1 cells were pretreated with 50 uM H2O2 for 1 hour to induce activation of pCrkL and were then incubated with 10 uM NC5 or Compound III for 24 hours. pCrkL (T207) expression was determined by flow cytometry.

SKHep1 cell line = experiment: CCK-8 cell viability, SKHep1; format: cell-based; conditions: 1 uM, 5 uM, 10 uM; 48 hours
Method: as §4

4T1 breast tumor = experiment: 4T1-Luc orthotopic syngeneic breast tumor model; format: in vivo, Balb/c mice; conditions: 5.0 μg/g oral gavage
Excerpt: Syngeneic orthotopic 4T1 breast tumor-bearing mouse model was established by inoculating 5×10^4 4T1-Luc cells mixed with Matrigel were into the left inguinal fat pad of Balb/c mice from Jackson Laboratories. This orthotopic syngeneic breast tumor model is a tool for preclinical testing of anti-cancer drugs or immunotherapy that require an intact immune system to elicit activity.
(§5) To test the effects of the disclosed compounds on the xenograft mouse models, the HCC-Sk-Hep1 cell line xenograft model in NSG mice and 4T1-Luc orthotopic syngeneic breast tumor model in Balb/c mice was used. After confirming the palpable tumor in NSG or Balb/c mice. […] Compound III is referred to as “NC5-140-1” and Compound I is referred to as “NC5-140-2” in FIGS. 11A-11C.

Sk-Hep1 tumor = experiment: HCC Sk-Hep1 xenograft model; format: in vivo, NSG mice; conditions: four-group study, 5.0 μg/g oral gavage
Excerpt: To further test whether the tumor growth inhibition effect of NC5 applied to other solid tumors, the HCC-Sk-Hep1cell line and PDAC-BXPC3 cell line xenograft models were used. Subcutaneous injection of 1.5×10^6 SK-Hep1 or BXPC3 cells in NSG mice, Six-ten days after tumor cell injection, the palpable tumor in NSG mice was confirmed.
as §5

Sk-Hep1 cells = experiment: Growth inhibition of Sk-Hep1 cells (cell culture images); format: cell-based; conditions: 5 μM, 24 hours
Thermodynamic solubility = format: physicochemical; conditions: thermodynamic from solid
Method: In this example, solubility measurement assays were performed using a phosphate buffer (also referred to as “PB”) system and a water system to evaluate thermodynamic solubility. The PB system was at a pH of 7.4 to mimic in vivo environments. For the PB system, the values were determined to be NC5: Thermodynamic Solubility pH=7.4<0.42 μg/mL; Compound III: Thermodynamic Solubility pH=7.4<0.48 μg/mL; and Compound I: Thermodynamic Solubility pH=7.4<0.48 μg/mL. Results for the water assay were as follows: NC5: Thermodynamic Solubility Water<0.42 μg/mL; Compound III: Thermodynamic Solubility Water<0.48 μg/mL; and Compound I: Thermodynamic Solubility Water<0.48 μg/mL.

CC(C)=CCc1c2c(c3occ(-c4ccc5c(c4)OS(=O)(=O)O5)c(=O)c3c1O)C=CC(C)(C)O2 [Compound III]
toxic effect compared with NC5 (XTT viability) (MDA-MB-231 cells): comparable toxic effect as NC5 | cell viability (CCK-8) (AML cell line (MoLM-13)): decrease cell viability significantly | PBNK cells killing activity (Cr51 release) [1]: increased PBNK cells killing activity | toxic effect compared with NC5 (XTT viability) (BXPC3 cells): better toxic effect than NC5 | PBNK cells killing activity (Cr51 release) [2]: increased PBNK cells killing activity | cell viability (CCK-8) (Huh7 cell line): decreased cell viability significantly | cell viability (CCK-8) (HepG2 cell line): decreased cell viability significantly | cell viability (CCK-8) (MDA468 cell line): decreased cell viability significantly | H2O2 induced pCrkL protein levels [3]: inhibited H2O2 induced pCrkL protein levels | cell viability (CCK-8) (SKHep1 cell line): decreased cell viability significantly | tumor growth (4T1 breast tumor): steady growth inhibition | median survival (4T1 breast tumor; vehicle 25 days): 39.5 days | tumor growth (Sk-Hep1 tumor): inhibit tumor growth | median survival (Sk-Hep1 tumor; vehicle 26 days): 34.5 days | toxic effect compared with NC5 (growth inhibition) (Sk-Hep1 cells): better toxic effect than NC5 | solubility thermodynamic (Thermodynamic solubility; aqueous buffer, phosphate buffer (PB) system, pH 7.4, read-out: Thermodynamic Solubility pH=7.4): < 0.48 µg/mL | solubility thermodynamic (Thermodynamic solubility; water system, read-out: Thermodynamic Solubility Water): < 0.48 µg/mL
